The values below come from ChEMBL document CHEMBL1131491, “Comparative binding energy analysis of HIV-1 protease inhibitors: incorporation of solvent effects and validation as a powerful tool in receptor-based drug design” (J Med Chem, 1998).

Structures are written as SMILES.

In this assay the target is Human immunodeficiency virus type 1 protease (Human immunodeficiency virus 1, UniProt Q72874). Kind of assay: Inhibitory activity against HIV-1 protease.

With `CC(C)(C)NC(=O)[C@@H]1C[C@@H]2CCCC[C@@H]2CN1C[C@@H](O)[C@H](Cc1ccccc1)NC(=O)OC(C)(C)C`, the IC50 is 3020 nM.

`CC(C)(C)OC(=O)N[C@@H](Cc1ccccc1)[C@@H](O)C[C@@H](Cc1ccccc1)C(=O)N[C@H]1c2ccccc2OC[C@H]1O` gave an IC50 of 0.178 nM.

With `CC(C)(C)NC(=O)[C@@H]1C[C@@H]2CCCC[C@@H]2CN1C[C@@H](O)C[C@@H](Cc1ccccc1)C(=O)N[C@H]1c2ccccc2CC1O` (some centres not stated), the IC50 was 7.59 nM.

On to `CC(C)(C)OC(=O)N[C@@H](Cc1ccccc1)[C@@H](O)C[C@@H](Cc1ccccc1)C(=O)N[C@H]1c2ccccc2CC[C@H]1O`, for which the IC50 is 0.692 nM.

In turn, `CC(C)(C)OC(=O)N[C@@H](Cc1ccccc1)[C@@H](O)CC(=O)N[C@H]1c2ccccc2C[C@H]1O` gave a concentration for half-maximal inhibition (IC50) of 562 nM.

`CC(C)(C)OC(=O)N[C@@H](Cc1ccccc1)[C@@H](O)C[C@@H](Cc1ccccc1)C(=O)N[C@H]1C=CC[C@H]1O` gave an IC50 of 9.55 nM.

Compound `C[C@@H](NC(=O)[C@H](Cc1ccccc1)C[C@H](O)[C@H](Cc1ccccc1)NC(=O)OC(C)(C)C)c1ccccc1` showed an IC50 of 145 nM.

The term IC50 denotes the point on the concentration scale where inhibition reaches its midpoint. The low end stands for greater potency, the high end for weaker potency.
